From patent publication US7598241B2, “Carboxamide derivatives and their use as factor Xa inhibitors” (Merck Patent GmbH, priority 2003, dated 2009) come the findings set out here.

The target of test [1] is factor Xa (Homo sapiens, UniProt P00742). The test is described as follows: Factor Xa inhibition (FXa-IC50). It counts as biochemical. An excerpt:
The inhibition of factor Xa by the compounds according to the invention and the measurement of the anticoagulant and antithrombotic activity can be determined by conventional in-vitro or in-vivo methods. A suitable method is described, for example, by J. Hauptmann et al. in Thrombosis and Haemostasis 1990, 63, 220-223.
The inhibition of factor Xa can be measured, for example, by the method of T. Hara et al. in Thromb. Haemostas. 1994, 71, 314-319.

The target in test [2] is TF/FVIIa (Homo sapiens, UniProt P08709). The test is described as follows: TF/FVIIa inhibition (TF/FVIIa-IC50). It counts as biochemical. The source says:
Coagulation factor VIIa initiates the extrinsic part of the coagulation cascade after binding to tissue factor and contributes to the activation of factor X to give factor Xa. Inhibition of factor VIIa thus prevents the formation of factor Xa and thus subsequent thrombin formation. • The inhibition of factor VIIa by the compounds according to the invention and the measurement of the anticoagulant and antithrombotic activity can be determined by conventional in-vitro or in-vivo methods. A conventional method for the measurement of the inhibition of factor VIIa is described, for example, by H. F. Ronning et al. in Thrombosis Research 1996, 84, 73-81.

Chain of factor Xa (P00742 235-488 limits assumed): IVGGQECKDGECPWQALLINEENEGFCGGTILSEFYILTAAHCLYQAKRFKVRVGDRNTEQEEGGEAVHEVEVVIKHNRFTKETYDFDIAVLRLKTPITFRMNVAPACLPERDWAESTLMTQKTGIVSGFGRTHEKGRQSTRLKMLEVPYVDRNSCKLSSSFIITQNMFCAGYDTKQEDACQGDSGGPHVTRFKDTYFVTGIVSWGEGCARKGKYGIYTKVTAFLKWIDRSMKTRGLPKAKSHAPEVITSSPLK
Chain of factor Xa (P00742 41-179 partner limits assumed): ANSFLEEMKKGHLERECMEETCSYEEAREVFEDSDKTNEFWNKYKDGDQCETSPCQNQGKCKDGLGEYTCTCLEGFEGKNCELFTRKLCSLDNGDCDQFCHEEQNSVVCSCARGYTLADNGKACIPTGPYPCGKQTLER
Chain of TF/FVIIa (P08709 213-466 limits assumed): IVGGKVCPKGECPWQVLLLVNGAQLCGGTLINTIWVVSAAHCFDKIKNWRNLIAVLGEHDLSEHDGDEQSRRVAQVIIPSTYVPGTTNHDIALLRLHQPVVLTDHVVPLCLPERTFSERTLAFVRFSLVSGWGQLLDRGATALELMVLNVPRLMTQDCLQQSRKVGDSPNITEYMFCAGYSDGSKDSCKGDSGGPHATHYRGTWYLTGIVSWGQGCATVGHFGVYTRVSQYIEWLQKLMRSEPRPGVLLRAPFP
Chain of TF/FVIIa (P08709 61-212 partner limits assumed): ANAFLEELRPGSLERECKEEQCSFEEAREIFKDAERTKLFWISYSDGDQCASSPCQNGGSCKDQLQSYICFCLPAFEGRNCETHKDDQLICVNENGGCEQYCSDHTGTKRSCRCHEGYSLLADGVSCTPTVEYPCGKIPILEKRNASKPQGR
Chain of TF/FVIIa (P13726 33-295 partner): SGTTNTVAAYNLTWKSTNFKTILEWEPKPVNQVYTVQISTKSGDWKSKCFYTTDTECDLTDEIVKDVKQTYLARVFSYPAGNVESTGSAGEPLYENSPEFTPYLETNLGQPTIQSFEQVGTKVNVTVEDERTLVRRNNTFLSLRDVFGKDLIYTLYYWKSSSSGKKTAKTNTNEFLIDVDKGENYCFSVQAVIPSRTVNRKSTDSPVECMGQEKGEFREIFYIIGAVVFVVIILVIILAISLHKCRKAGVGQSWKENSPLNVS

The IC50 is the concentration needed to halve the response being measured. With `CS(=O)(=O)CCC(NC(=O)Nc1ccc(Cl)cc1)C(=O)Nc1ccc(-n2ccccc2=O)cc1` (stereo not shown) [Compound 1A, 2-[3-(4-chlorophenyl)ureido]-N-[4-(2-oxo-2H-pyridin-1-yl)phenyl]-4-methanesulfonylbutyramide], the IC50 in test [1] and in test [2] was 0.028 µM throughout.

Take `CS(=O)(=O)CCC(NC(=O)Nc1ccc(Cl)cc1)C(=O)Nc1ccc(-n2ccncc2=O)cc1` (stereo not shown) [Compound 1B, 2-[3-(4-chlorophenyl)ureido]-N-[4-(2-oxo-2H-pyrazin-1-yl)phenyl]-4-methanesulfonylbutyramide]: the IC50 is 0.042 µM in test [1] and 0.043 µM in test [2].

For the molecule `COP(=O)(C[C@@H](NC(=O)Nc1ccc(Cl)cc1)C(=O)Nc1ccc(N2CCOCC2=O)cc1)OC` [Compound 1D, (S)-2-[3-(4-chlorophenyl)ureido]-N-[4-(3-oxomorpholin-4-yl)phenyl]-3-(dimethoxyphosphoryl)propionamide], the IC50 in test [1] stood at 0.085 µM.

For the molecule `CS(=O)(=O)C[C@H](NC(=O)Nc1ccc(Cl)cc1)C(=O)Nc1ccc(-n2ccccc2=O)cc1` [Compound 2A, (R)-2-[3-(4-chlorophenyl)ureido]-N-[4-(2-oxo-2H-pyridin-1-yl)phenyl]-3-methanesulfonylpropionamide], the IC50 was determined as 0.0064 µM in test [1] and 0.012 µM in test [2].
